Results as given in patent US20150329558A1, “FUSED HETEROCYCLIC COMPOUNDS AS ION CHANNEL MODULATORS” (Gilead Sciences, Inc., priority 2011, published 2015).
Read-outs that look alike come from different tables or passages of the source.

What was measured:
[1] = Microsomal stability assay, rat; assay type: in vitro ADME; conditions: metabolic stability, rat liver microsomes 0.5 mg/mL, substrate 3 uM
How it was run: (§1)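 Liver microsomes at 0.5 mg/mL protein in 100 mM KPO4 buffer, incubated with 3 uM compound and NADPH-regenerating system, run in duplicate. Samples taken at 2, 12, 25, 45 and 65 min and quenched in MeOH/ACN/water before analysis.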

[2] = Microsomal stability assay, dog; assay type: in vitro ADME; conditions: metabolic stability, dog liver microsomes 0.5 mg/mL, substrate 3 uM
How it was run: as §1

hERG potassium channel = hERG potassium channel (Homo sapiens, UniProt Q12809); assay: hERG screening assay (PatchXpress, CHO cells); assay type: cell-based; conditions: % inhibition at 1 μM
Sequence of hERG potassium channel (Q12809 whole entry): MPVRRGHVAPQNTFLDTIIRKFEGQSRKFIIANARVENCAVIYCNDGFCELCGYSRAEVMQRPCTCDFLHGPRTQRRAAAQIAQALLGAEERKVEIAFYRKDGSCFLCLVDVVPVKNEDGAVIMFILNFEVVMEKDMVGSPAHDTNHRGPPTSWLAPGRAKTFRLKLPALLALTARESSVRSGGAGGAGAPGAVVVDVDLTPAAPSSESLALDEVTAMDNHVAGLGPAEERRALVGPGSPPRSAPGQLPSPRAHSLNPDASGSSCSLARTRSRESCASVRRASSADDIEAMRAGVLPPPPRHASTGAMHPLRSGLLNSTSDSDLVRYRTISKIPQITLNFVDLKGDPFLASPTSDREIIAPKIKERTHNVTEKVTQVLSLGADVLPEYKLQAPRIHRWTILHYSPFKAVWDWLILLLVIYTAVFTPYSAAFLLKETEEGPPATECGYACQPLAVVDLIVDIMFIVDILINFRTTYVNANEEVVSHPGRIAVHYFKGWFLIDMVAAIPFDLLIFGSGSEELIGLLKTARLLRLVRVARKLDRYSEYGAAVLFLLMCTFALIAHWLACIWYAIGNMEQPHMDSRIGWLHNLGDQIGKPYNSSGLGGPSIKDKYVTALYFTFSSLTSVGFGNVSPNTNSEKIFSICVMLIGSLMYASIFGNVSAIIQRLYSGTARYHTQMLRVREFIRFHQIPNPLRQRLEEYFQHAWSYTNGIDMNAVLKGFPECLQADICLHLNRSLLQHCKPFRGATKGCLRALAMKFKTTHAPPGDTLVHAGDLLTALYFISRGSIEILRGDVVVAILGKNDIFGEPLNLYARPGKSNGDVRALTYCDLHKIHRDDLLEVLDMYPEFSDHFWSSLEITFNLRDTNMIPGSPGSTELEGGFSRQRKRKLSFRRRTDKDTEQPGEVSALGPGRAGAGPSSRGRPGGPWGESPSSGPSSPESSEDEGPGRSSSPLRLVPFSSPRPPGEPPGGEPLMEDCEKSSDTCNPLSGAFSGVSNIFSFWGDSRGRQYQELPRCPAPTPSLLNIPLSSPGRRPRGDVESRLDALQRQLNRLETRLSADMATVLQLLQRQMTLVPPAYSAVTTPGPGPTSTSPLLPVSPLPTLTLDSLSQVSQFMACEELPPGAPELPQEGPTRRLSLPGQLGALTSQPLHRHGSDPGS
Description: Compounds were also tested for their effect to block the hERG K^+ channel.
Compounds were screened to test their activity in blocking the hERG potassium channel at AVIVA Biosciences (San Deigo, Calif., USA). The hERG channel is heterologously expressed in a CHO (Chinese Hamster Ovary) cell line. Cells were maintained with standard tissue culture procedures and stable channel expression was maintained with 500 μg/mL G418 in the culture medium. Cells were harvested for testing on the PatchXpress 7000A automated patch clamp with Accumax (Innovative Cell Technologies, San Diego, Calif.) to isolate single cells.
The following solutions were used for electrophysiological recordings. The external solution contained: 2 mM CaCl2; 2 mM MgCl2; 4 mM KCl; 150 mM NaCl; 10 mM Glucose; 10 mM HEPES (pH 7.4 with 1M NaOH; osmolarity, ˜310 mOsm). The internal solution contained: 140 mM KCl, 10 mM MgCl2, 6 mM EGTA, 5 mM HEPES, 5 mM ATP (pH adjusted to 7.25 with KOH; osmolarity, ˜295 mOsm).
hERG channels were activated when the voltage was first stepped to −50 mV for 300 ms from the −80 mV holding potential and then stepped to +20 mV for 5 seconds. At +20 mV the channels open and then largely inactivate, so the currents are relatively small. Upon returning to −50 mV from +20 mV, hERG currents transiently become much larger as inactivation is rapidly removed and then the channel closes. The first step to −50 mV for 300 ms was used as a baseline for measuring the peak amplitude during the step to −50 mV after channel activation. The peak tail current at −50 mV was measured both under control conditions and after addition of compound, each cell serving as its own control.
All compounds were prepared as 10 mM DMSO stocks in glass vials. Stock solutions were mixed by vigorous vortexing and sonication for about 2 minutes at room temperature. For testing, compounds were diluted in glass vials using an intermediate dilution step in pure DMSO and then further diluted to working concentrations in external solution. Dilutions were prepared no longer than 20 minutes before use.
For the electrophysiological recordings, after achieving the whole-cell configuration, cells were monitored for 90 seconds to assess stability and washed with external solution for 66 seconds. The voltage protocol described above was then applied to the cells every 12 seconds and throughout the whole procedure. Only cells with stable recording parameters and meeting specified health criteria were allowed to enter the compound addition procedure.
External solution containing 0.1% DMSO (vehicle) was applied to the cells first to establish the control peak current amplitude. After allowing the current to stabilize for 3 to 5 minutes, 1 μM and then 10 μM test compounds were applied. Each compound concentration was added 4 times and cells were kept in test solution until the effect of the compound reached steady state or for a maximum of 12 minutes. After addition of test compound, a positive control (1 μM Cisapride) was added and must block >95% of the current for the experiment to be considered valid. Washout in the external solution compartment was performed until the recovery of the current reached steady state.

[3] = target: wild-type human cardiac sodium channel, hNav1.5 (late INa) (Homo sapiens, UniProt Q14524); assay: Late INa screening assay (QPatch whole cell patch clamp); assay type: cell-based
Sequence of wild-type human cardiac sodium channel, hNav1.5 (late INa) (Q14524 whole entry): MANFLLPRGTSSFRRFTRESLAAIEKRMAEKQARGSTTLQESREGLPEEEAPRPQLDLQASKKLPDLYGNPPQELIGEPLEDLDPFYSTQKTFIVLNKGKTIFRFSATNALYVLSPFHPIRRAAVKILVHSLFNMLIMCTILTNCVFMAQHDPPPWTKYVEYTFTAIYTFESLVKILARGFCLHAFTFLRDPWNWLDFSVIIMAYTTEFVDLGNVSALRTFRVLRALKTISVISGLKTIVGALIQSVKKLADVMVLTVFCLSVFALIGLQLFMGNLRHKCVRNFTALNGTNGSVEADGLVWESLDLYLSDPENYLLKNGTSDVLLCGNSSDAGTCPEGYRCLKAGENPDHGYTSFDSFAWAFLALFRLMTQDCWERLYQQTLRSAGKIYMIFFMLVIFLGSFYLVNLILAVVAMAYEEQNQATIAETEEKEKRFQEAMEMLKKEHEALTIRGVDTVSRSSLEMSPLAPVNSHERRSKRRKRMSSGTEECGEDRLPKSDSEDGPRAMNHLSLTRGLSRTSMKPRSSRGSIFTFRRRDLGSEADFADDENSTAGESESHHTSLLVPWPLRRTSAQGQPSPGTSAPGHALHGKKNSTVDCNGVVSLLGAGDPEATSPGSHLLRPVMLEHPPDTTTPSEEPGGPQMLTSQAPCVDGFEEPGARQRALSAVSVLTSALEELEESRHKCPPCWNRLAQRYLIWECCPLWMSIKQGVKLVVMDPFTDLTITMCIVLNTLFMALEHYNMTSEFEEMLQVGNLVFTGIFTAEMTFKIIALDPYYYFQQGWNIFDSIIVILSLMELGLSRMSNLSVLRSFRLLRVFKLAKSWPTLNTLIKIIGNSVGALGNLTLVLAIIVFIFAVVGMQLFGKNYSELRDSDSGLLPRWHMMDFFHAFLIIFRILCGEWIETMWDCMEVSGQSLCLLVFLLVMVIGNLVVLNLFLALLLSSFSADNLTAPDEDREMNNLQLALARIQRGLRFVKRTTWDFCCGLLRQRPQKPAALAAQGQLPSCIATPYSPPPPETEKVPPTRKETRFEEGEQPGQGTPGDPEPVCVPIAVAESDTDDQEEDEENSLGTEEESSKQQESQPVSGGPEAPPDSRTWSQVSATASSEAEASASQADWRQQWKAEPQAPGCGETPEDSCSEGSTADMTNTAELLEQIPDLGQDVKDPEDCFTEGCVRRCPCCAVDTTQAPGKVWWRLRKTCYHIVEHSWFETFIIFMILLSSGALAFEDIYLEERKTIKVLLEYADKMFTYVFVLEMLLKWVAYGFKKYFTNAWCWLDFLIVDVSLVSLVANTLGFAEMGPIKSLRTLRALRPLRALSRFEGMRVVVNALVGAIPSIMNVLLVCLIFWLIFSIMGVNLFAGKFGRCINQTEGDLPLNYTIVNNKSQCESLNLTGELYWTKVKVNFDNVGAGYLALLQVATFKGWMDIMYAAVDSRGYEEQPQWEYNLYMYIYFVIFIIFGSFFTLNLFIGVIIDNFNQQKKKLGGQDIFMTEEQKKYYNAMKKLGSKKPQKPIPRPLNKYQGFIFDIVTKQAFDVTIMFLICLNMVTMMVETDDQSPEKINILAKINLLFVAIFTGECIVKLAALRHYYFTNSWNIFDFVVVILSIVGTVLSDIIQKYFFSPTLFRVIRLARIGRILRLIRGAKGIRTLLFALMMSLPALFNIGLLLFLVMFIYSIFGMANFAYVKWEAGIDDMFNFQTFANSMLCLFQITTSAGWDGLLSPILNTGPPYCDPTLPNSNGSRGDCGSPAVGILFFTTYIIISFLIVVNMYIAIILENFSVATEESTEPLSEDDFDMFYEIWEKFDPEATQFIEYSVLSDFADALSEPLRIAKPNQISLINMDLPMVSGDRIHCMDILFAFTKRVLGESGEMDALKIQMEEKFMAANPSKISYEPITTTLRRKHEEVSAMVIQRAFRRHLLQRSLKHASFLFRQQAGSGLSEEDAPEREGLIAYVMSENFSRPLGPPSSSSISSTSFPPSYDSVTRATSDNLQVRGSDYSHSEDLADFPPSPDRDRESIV
How it was run: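 HEK293 cells stably expressing hNav1.5 alpha subunit without beta subunits, QPatch automated whole-cell clamp at 23-25° C, CsF-based internal solution pH 7.4. Late INa induced by 10 μM tefluthrin; 250 ms steps to −20 mV from −120 mV at 0.1 Hz, compounds at 1 μM. Percent block of mean current 225–250 ms into the step.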

[4] = Microsomal stability assay, human; assay type: in vitro ADME; conditions: metabolic stability, human liver microsomes 0.5 mg/mL, substrate 3 uM
How it was run: as §1

hNav1.1 = target: T1, hNav1.1 (Homo sapiens, UniProt P35498); assay: Nav1.1 use-dependent block, whole-cell voltage clamp; assay type: cell-based; conditions: use-dependent block 10 Hz, read-out: NAv1.1*-CHAN TEST-UDB-10 HZ-
T1 construct: expressed in transfected cells; host or cells: HEK293, transient transfection (α1:β1:β2 = 10:1:1)

Human Nav1.2 = target: T2, Human Nav1.2 (Homo sapiens, UniProt Q99250); assay: Nav1.2 use-dependent block, whole-cell voltage clamp; assay type: cell-based; conditions: use-dependent block 10 Hz, read-out: NAv1.2*-CHAN TEST-UDB-10 HZ-
T2 construct: expressed in transfected cells
T2 sequence (Q99250 whole entry): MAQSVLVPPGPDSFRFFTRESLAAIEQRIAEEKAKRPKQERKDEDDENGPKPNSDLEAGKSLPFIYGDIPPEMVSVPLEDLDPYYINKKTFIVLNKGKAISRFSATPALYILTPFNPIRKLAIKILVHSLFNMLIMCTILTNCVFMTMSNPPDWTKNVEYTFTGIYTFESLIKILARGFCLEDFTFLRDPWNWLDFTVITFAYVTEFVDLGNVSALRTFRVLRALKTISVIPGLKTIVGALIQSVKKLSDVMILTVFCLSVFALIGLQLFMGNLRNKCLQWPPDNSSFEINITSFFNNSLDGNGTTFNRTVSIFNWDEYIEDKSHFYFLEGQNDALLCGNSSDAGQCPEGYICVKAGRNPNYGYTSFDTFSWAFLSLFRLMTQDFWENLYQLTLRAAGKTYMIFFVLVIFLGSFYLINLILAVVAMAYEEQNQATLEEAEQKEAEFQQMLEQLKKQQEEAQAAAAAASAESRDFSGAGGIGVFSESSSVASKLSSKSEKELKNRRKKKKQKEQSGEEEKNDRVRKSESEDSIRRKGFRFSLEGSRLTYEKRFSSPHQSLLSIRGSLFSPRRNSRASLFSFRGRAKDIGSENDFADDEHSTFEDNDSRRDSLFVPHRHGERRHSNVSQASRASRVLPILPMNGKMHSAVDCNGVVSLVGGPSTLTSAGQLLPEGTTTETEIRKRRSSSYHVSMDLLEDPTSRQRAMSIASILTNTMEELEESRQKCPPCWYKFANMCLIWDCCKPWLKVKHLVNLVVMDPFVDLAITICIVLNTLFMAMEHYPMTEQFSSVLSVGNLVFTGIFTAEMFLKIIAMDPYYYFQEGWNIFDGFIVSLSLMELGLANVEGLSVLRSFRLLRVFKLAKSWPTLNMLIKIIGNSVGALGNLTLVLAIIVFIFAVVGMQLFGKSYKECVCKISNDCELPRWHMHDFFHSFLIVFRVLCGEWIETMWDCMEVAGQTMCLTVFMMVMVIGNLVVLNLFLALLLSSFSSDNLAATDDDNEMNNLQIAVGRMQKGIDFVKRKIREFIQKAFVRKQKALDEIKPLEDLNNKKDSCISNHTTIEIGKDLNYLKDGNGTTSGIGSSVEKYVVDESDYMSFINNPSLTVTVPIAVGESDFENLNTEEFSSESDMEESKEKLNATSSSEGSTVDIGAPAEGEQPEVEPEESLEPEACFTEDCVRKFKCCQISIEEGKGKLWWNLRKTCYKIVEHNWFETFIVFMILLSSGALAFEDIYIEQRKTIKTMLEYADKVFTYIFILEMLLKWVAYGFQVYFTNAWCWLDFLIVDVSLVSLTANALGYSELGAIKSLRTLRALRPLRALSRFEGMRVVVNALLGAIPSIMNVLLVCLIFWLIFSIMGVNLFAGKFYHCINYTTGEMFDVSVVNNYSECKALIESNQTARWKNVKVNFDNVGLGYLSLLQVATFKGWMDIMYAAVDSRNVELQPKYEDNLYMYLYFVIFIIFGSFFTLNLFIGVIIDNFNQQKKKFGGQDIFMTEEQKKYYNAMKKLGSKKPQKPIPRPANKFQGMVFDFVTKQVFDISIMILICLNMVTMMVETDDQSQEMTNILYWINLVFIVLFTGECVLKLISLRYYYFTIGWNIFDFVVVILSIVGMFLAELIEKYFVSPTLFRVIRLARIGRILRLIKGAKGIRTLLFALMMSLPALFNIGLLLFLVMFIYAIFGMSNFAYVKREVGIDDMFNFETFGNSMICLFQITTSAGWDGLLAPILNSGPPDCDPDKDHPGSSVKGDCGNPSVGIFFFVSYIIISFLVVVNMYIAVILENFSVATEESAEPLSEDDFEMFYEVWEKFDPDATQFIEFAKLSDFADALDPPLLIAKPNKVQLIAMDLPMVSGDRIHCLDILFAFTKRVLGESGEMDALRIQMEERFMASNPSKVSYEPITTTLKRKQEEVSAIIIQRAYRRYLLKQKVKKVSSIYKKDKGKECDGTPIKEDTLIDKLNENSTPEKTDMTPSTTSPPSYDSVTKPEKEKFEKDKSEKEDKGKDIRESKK
Text: Wild-type (WT) cDNA stably transfected in Chinese hamster ovary (CHO) cells is used to record INa. Unless otherwise noted, all reagents are purchased from Sigma-Aldrich (St Louis, Mo., U.S.A.).
Whole-cell voltage-clamp recordings are used to measure the biophysical properties of WT. Briefly, the pipette solution consists of (in mM) 110 CsF, 10 NaF, 20 CsCl, 2 EGTA, 10 HEPES, with a pH of 7.35 and osmolarity of 300 mOsmol/kg. The bath (control) solution contains in (mM): 145 NaCl, 4 KCl, 1.8 CaCl2, 1 MgCl2, 10 dextrose, 10 HEPES, with a pH of 7.35 and osmolarity of 310 mOsmol/kg. Cells are allowed to stabilize for 10 min after establishment of the whole-cell configuration before current is measured. Series resistance is compensated 90% to assure that the command potential is reached within microseconds with a voltage error <2 mV. Leak currents are subtracted by using an online P/4 procedure and all currents are low-pass Bessel filtered at 5 kHz and digitized at 50 kHz.
Tonic block of peak current is measured using a step to −10 mV (20 ms) from a holding potential of −120 mV (0.2 Hz). Use-dependent block of peak current is measured during pulse number 300 of a pulse train (−10 mV, 5 ms, 300 pulses, 10 Hz or 25 Hz) from a holding potential of −120 mV. Two sequential pulse train stimulations are averaged to obtain mean current traces for each recording condition, which are then used for offline subtraction and analysis.
For use-dependent studies, cells are stimulated with depolarizing pulse trains (−10 mV, 5 ms, 300 pulses, 10 and 25 Hz) from a holding potential of −120 mV. Currents are then normalized to the peak current recorded in response to the first pulse in each frequency train. For tonic block studies, peak current is evaluated in response to a 20 ms depolarization to −10 mV (0.2 Hz). Data analysis is performed using Clampfit 9.2 (Axon Instruments, Union City, Calif., U.S.A), Excel 2002 (Microsoft, Seattle, Wash., U.S.A.), and OriginPro 7.0 (OriginLab, Northampton, Mass., U.S.A) software. Results are presented as mean±SEM.
A stock solution of 10 mM compound of Formula I is prepared in 0.1 M HCl or DMSO. A fresh dilution of the compound of Formula I in the bath solution is prepared every experimental day and the pH is readjusted to 7.35 as necessary. The final DMSO concentration was kept at 0.1% in all solutions. Direct application of the perfusion solution to the clamped cell is achieved using the Perfusion Pencil system (Automate, Berkeley, Calif.). Direct cell perfusion is driven by gravity at a flow rate of 350 μL/min using a 250 micron tip. This system sequesters the clamped cell within a perfusion stream and enables complete solution exchange within 1 second. The clamped cell is perfused continuously starting immediately after establishing the whole-cell configuration. Control currents are measured during control solution perfusion.
Solutions are perfused for three minutes prior to current recordings to allow equilibrium (tonic) drug block. Tonic block of peak currents is measured from this steady-state condition. Three sequential current traces are averaged to obtain a mean current for each recording. The mean current traces are utilized for offline analysis. Use-dependent block of peak current is measured during pulse number 300 of the pulse train, (−10 mV, 5 ms, 300 pulses, 10 Hz) from a holding potential of −120 mV. Two sequential pulse train stimulations are averaged to obtain mean current traces for each recording condition, which are then used for offline subtraction and analysis. Where appropriate, concentration inhibition curves are fit with the Hill equation: I/Imax=1/[1+10̂(log IC50−I)*k], where IC50 is the concentration that produces half inhibition and k is the Hill slope factor.

[5] = target: wild-type human cardiac sodium channel, hNav1.5 (peak INa) (Homo sapiens, UniProt Q14524); assay: Peak INa screening assay (tonic and use-dependent block); assay type: cell-based; conditions: 1 μM
How it was run: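 Whole-cell automated patch clamp, HEK293 stably expressing hNav1.5 alpha without beta subunits, 23-25° C, holding −100 mV; bath Na⁺ reduced to 20 mM, CsF-based intracellular pH 7.4. Test compound 1 μM; tonic block at 0.1 Hz, use-dependent block at 3 Hz, % peak block after rundown correction.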

[6] = % inhibition at 1 μM, read-out: NAv1.5*-LATE-
[7] = percent block of late INa, compound at 1 μM, 10 μM Tefluthrin, HEK293 hNav1.5, read-out: Late INa 1 μM

SMILES | MS Rat THalf [1] [min] | MS Dog THalf [2] [min] | MS Human THalf [4] [min] | inhibition at 1 µM (hNav1.1) [%] | inhibition at 1 µM (Human Nav1.2) [%] | HERG* (hERG potassium channel) [%] | inhibition at 1 µM [3, 6] [%] | inhibition at 1 µM [3, 7] [%] | inhibition at 1 µM ([5]; tonic block of peak INa, 0.1 Hz, read-out: Peak TB 1 μM) [%] | inhibition at 1 µM ([5]; use-dependent block of peak INa, 3 Hz, read-out: Peak UDB 1 μM) [%]
O=c1c2cc(-c3ccc(OC(F)(F)F)cc3)ccc2cnn1Cc1ncc(Cl)cn1 [III-35, 2-((5-chloropyrimidin-2-yl)methyl)-7-(4-(trifluoromethoxy)phenyl)phthalazin-1 (2H)-one] | 296 | 85 | > 395 | – | – | 17 | 38 | 38 | – | –
O=C1c2cc(-c3ccc(C(F)(F)F)cc3)ccc2SCN1Cc1ccccn1 [Compound X-3, 3-(pyridin-2-ylmethyl)-6-(4-(trifluoromethyl)phenyl)-2H-benzo[e][1,3]thiazin-4(3H)-one] | 45 | 137 | 36 | – | – | – | – | 67 | 31 | 35

Now from value to molecule, other results behind:

MS Rat THalf [1] [min] | MS Dog THalf [2] [min] | MS Human THalf [4] [min] | inhibition at 1 µM (hNav1.1) [%] | inhibition at 1 µM (Human Nav1.2) [%] | SMILES | HERG* (hERG potassium channel) [%] | inhibition at 1 µM [3, 6] [%] | inhibition at 1 µM [3, 7] [%] | inhibition at 1 µM ([5]; tonic block of peak INa, 0.1 Hz, read-out: Peak TB 1 μM) [%] | inhibition at 1 µM ([5]; use-dependent block of peak INa, 3 Hz, read-out: Peak UDB 1 μM) [%]
181 | > 395 | > 395 | – | – | O=c1c2cc(-c3ccc(OC(F)(F)F)cc3)ccc2nnn1Cc1nnc(C2CC2)s1 [II-66, 3-((5-cyclopropyl-1,3,4-thiadiazol-2-yl)methyl)-6-(4-(trifluoromethoxy)phenyl)benzo[d][1,2,3]triazin-4(3H)-one] | 23 | 39 | 39 | – | –
> 395 | 356 | 362 | – | – | O=c1c2cc(-c3ccc(OC(F)(F)F)cc3)ccc2nnn1CCOc1nccc(-c2noc(C3CC3)n2)n1 [II-60, 3-(2-(4-(5-cyclopropyl-1,2,4-oxadiazol-3-yl)pyrimidin-2-yloxy)ethyl)-6-(4-(trifluoromethoxy)phenyl)benzo[d][1,2,3]triazin-4(3H)-one] | 31 | 32 | 32 | – | –
222 | 68 | 333 | 27.6 | 5 | Cc1noc(Cn2ncc3ccc(-c4ccc(OC(F)(F)F)cc4)cc3c2=O)n1 [III-2, 2-((3-methyl-1,2,4-oxadiazol-5-yl)methyl)-7-(4-(trifluoromethoxy)phenyl)phthalazin-1(2H)-one] | – | 40 | 40 | – | –
